The source of these data is publication PMC9653733, “Characterization of a Potent, Selective, and Safe Inhibitor, Ac15(Az8)2, in Reversing Multidrug Resistance Mediated by Breast Cancer Resistance Protein (BCRP/ABCG2)” (International Journal of Molecular Sciences, 2022).

In data set [1] the target is T1, BCRP (S1M180 cells) (Homo sapiens, UniProt Q9UNQ0, R482G).
T1 construct: endogenous in cells; host or cells: S1M180 (human colon carcinoma, mitoxantrone-selected)
T1 sequence (Q9UNQ0 1-655 R482G): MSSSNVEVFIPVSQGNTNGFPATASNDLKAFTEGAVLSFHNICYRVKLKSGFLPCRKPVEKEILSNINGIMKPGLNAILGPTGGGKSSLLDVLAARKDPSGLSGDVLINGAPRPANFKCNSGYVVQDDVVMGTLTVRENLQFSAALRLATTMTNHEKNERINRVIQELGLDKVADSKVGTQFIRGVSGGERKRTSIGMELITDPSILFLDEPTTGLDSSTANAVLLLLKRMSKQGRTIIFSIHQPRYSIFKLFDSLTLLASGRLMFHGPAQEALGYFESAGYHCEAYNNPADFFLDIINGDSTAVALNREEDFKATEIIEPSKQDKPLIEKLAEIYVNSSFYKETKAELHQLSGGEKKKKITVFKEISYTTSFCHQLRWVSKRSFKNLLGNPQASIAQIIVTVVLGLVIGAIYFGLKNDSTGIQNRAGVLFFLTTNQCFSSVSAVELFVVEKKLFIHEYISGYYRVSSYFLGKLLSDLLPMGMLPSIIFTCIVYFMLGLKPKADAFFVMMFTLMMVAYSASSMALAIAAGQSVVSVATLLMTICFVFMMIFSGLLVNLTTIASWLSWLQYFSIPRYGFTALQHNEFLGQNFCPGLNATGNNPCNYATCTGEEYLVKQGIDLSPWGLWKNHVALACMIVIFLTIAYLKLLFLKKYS
The experiment in a line: Drug accumulation assay in S1M180. In kind it is cell-based. How it is done: (§1) Figure 2 Effect of Ac15(Az8)2 on intracellular accumulation of BCRP-substrates in S1 and S1M180 cells. Cells were pre-treated with 0.1% DMSO, 100 nM, or 1000 nM Ac15(Az8)2 and then incubated with BCRP substrates. (A) Topotecan accumulation. (B) DOX accumulation. The intracellular level of drug after treatment was normalized to that of S1 cells after incubating with 0.1% DMSO. Student unpaired two-tailed t-test was conducted as indicated (** p < 0.01, *** p < 0.001). (C) To measure DOX efflux, S1M180 cells were pre-incubated with medium containing 20 μM DOX for 1 h at 37 °C. Cells were then washed and further incubated with or without 1 µM of Ac15(Az8)2. At 0, 5, 10, 30, 60, 120, and 180 min, the cells were harvested to measure the intracellular DOX level. (D) To determine intracellular Ac15(Az8)2 concentration, 1 × 10^7 cells were incubated with 1 µM of Ac15(Az8)2 at 37 °C for 2 h. Cells were then washed with ice-cold PBS. To the cell pellet, acetonitrile was added to lyse the cells, and the supernatant was saved for Ac15(Az8)2 determination using UPLC–MS/MS.
Briefly, 1 × 10^6 cells of S1 and S1M180 cells were pre-incubated with 100 nM or 1000 nM Ac15(Az8)2 for 2 h and followed by 50 µM of topotecan or 20 µM of DOX for 1-h incubation. DMSO at 0.1% was used as a negative control. After incubation, the cells were spun down and washed with cold PBS, pH7.4 for 2 times and lysed with 100 μL of lysis buffer (0.75 M HCl, 0.2% Triton-X100 in isopropanol) with vigorous vortex. The lysate was further incubated at 37 °C for 20 min. After incubation, the lysate was spun down, and 100 μL of supernatant was saved and seeded into a black 96-well microtiter plate. The fluorescence level of DOX was determined by a fluorescence microplate reader (BMG Technologies) using excitation and an emission wavelength pair of 460 nm and 610 nm.

Another data set deals with S1 xenograft. The experiment in a line: In vivo efficacy in parental S1 xenograft. Also noted: species or system Balb/c nu nu mice. To be noted: four times (700% without treatment). The source says:
(A) S1 xenograft. (B) S1M180 xenograft. There were 3 treatment groups in S1 and S1M180 xenograft model. Treatments were given as indicated by an arrow (↑). % of tumor volume reduction was compared among different treatment groups on days 55 and 71. a, b, and c = mean tumor volume of solvent control, topotecan alone, and combination treatment groups on day 55, respectively. d and e = mean tumor volume of topotecan alone and combination treatment groups on day 71. (C) Tumor weight of S1M180-bearing mice on termination day. (D) % change of tumor volume and tumor doubling time of S1M180 xenograft were determined on days 55 and 71. […] Number of animal death was monitored during the efficacy study. (E) Body weight of S1M180-bearing mice. (F) To measure plasma and intratumor level of topotecan, S1M180-bearing mice were administered with 45 mg/kg (I.P.) of Ac15(Az8)2 one hour prior to 6 mg/kg (I.P.) of topotecan administration. Five hours after topotecan administration, the mice were sacrificed. Plasma and tumor were collected for analyzing topotecan level using UPLC–MS/MS. Student’s unpaired two-tailed t-test was performed between combination group and topotecan alone group or solvent control group as indicated (* p < 0.05, ** p < 0.01, *** p < 0.001).

The next data set concerns S1 cells. The experiment in a line: Drug accumulation assay in S1. In kind it is cell-based, human. To be noted: non-BCRP overexpressing S1 cells; 100 nM or 1000 nM. How it is done: as §1, with “To the cell pellet, acetonitrile was added to lyse the cells, and the supernatant was saved for Ac15(Az8)2 determination using UPLC–MS/MS.” left out
Briefly, 1 × 10^6 cells of S1 and S1M180 cells were pre-incubated with 100 nM or 1000 nM Ac15(Az8)2 for 2 h and followed by 50 µM of topotecan or 20 µM of DOX for 1-h incubation. […] The fluorescence level of DOX was determined by a fluorescence microplate reader (BMG Technologies) using excitation and an emission wavelength pair of 460 nm and 610 nm.

Another data set relates to L929. The experiment in a line: Cytotoxicity towards normal mouse fibroblast cells L929. To be noted: value without asterisk. In kind it is cell-based.
The target of data set [2] is T1, BCRP (S1M180 cells). Briefly: Cell proliferation (MTS) assay: reversal of BCRP-mediated topotecan/DOX resistance in S1M180. In kind it is cell-based. How it is done: (§2) In total, 6500 cells of S1M180 or MCF7-MX100 were incubated with various doses of topotecan or DOX and modulators. The final volume in each well of 96-well plates was 200 µL. The plates were then incubated for 5 days at 37 °C. The CellTiter 96 AQueous Assay (Promega) was used to measure cell proliferation. According to the manufacturer’s instructions, MTS (2 mg/mL) and PMS (0.92 mg/mL) were mixed in a ratio of 20:1. An aliquot (10 μL) of the freshly prepared MTS/PMS mixture was added into each well, and the plate was incubated for 2 h at 37 °C. Optical absorbance at 490 nm was then recorded with microplate absorbance reader (Bio-Rad). IC50 values were calculated from the dose-response curves of MTS assays (Prism 4.0).

A further data set deals with S1M180 cells. Briefly: Cytotoxicity of anticancer drugs in S1M180 (0.1% DMSO). In kind it is cell-based, human. The protocol:
as §2

Where [3] appears, read: 100 nM or 1000 nM Ac15(Az8)2, 2 h pre-incubation.

“And” between values parts separate entries of the source, which are not always exact repeats. Identical values can stand only once. Like-named read-outs stand apart in the source and are kept apart here.

With `COC(=O)c1cccc(COc2c(-c3ccc(OCCOCCn4cc(CN(Cc5ccccc5)Cc5cn(CCOCCOc6ccc(-c7oc8ccccc8c(=O)c7OCc7cccc(C(=O)OC)c7)cc6)nn5)nn4)cc3)oc3ccccc3c2=O)c1` [Ac15(Az8)2], the “Effect on DOX accumulation in S1M180” value at BCRP (S1M180 cells) [1] (setting [3]) is reported as “increase the accumulation”. Also, at BCRP (S1M180 cells) [1] (setting [3]), the “Effect on topotecan accumulation in S1M180” value is given as “increase the accumulation”. For the same compound, in the data set with S1 xenograft (topotecan 2 mg/kg + 45 mg/kg Ac15(Az8)2 I.P. every other day), the “Xenograft volume on the 11th day” value was determined as 200%. The “Effect on DOX accumulation in S1” value with S1 cells is “did not affect”. Moreover, the “Effect on topotecan accumulation in S1” value in the data set with S1 cells is reported as “did not affect”. The compound further yielded an IC50 in the data set with L929 of over 500000 nM. For the same compound, the EC50 on BCRP (S1M180 cells) [2] (HEK293/R2, MCF7-MX100 and S1M180, summary of Table 2, read-out: EC50 for reversing topotecan and DOX resistance in three BCRP-overexpressed cell lines (range)) is 3 to 72 nM; at BCRP (S1M180 cells) [2] (concentration reducing IC50 of anticancer drug by half, mean ± S.D., n = 3–4, read-out: EC50 needed for reversing BCRP-mediated DOX resistance, S1M180), 56 nM and 56.1 nM; at BCRP (S1M180 cells) [2] (concentration reducing IC50 of anticancer drug by half, mean ± S.D., n = 3–4, read-out: EC50 needed for reversing BCRP-mediated topotecan resistance, S1M180) it was 72 ± 12 nM; at BCRP (S1M180 cells) [2] (range over DOX and topotecan resistance of Table 2, read-out: EC50 for reversing resistance in S1M180 (range)), 56 to 72 nM.

As for `CC[C@@]1(O)C(=O)OCc2c1cc1n(c2=O)Cc2cc3c(CN(C)C)c(O)ccc3nc2-1` [topotecan], in the data set with S1M180 cells (Homo sapiens, S1-M1-80, S1M180 + 0.1% DMSO, mean ± S.D., n = 3, read-out: IC50 of topotecan), the IC50 turned out to be 12400 nM. For the same compound, the “RF (Relative Fold), topotecan” value in the data set on S1M180 cells (S1M180 + 0.1% DMSO (reference)) is reported as 1.0. Besides, the “Topotecan accumulation in S1M180, fold less than parental S1” value at BCRP (S1M180 cells) [1] (50 µM topotecan, 1 h, p < 0.01) was “about 2.1 fold”. Besides, in the data set with S1 xenograft (topotecan alone 2 mg/kg I.P. every other day), the “Xenograft volume on the 11th day” value is 200%.
